Where two headings read alike, the source gives them in different places.
Columns and labels:
[1] = biological target: hKIF18A (1-374) (Homo sapiens (Human), UniProt Q8NI77); assay: Inhibition of KIF18A microtubule-dependent ATPase activity (ADP-Glo)
[2] = biological target: KIF18a-Microtubule Complex (Homo sapiens (Human), UniProt Q8NI77); assay: Binding kinetics to KIF18a-microtubule complex (global progress curve analysis); conditions: for kon (on-rate from binding kinetics assay) / koff (off-rate from binding kinetics assay): global progress curve analysis; for Ki: read-out: KI (determined from binding kinetic assay koff/kon), koff/kon; for koff: read-out: koff (off-rate from binding kinetics assay)
Method: Binding Kinetics to KIF18a-Microtubule Complex
Compound binding kinetics parameters (kon and koff) were determined by the method of global progress curve analysis (GPCA). […] ADP product levels were determined by the Promega® ADP-Glo assay. The time/dose-dependent progress curves were then globally fit to a Michaelis-Menten kinetics model with 1-step slow binding inhibition to derive both on-rate kon and off-rate koff values (Zhang, R., Wong, K. (2017): “High performance enzyme kinetics of turnover, activation and inhibition for translational drug discovery”, Expert Opinion on Drug Discovery, 2017 January; 12(1):17-37. doi: 10.1080/17460441.2017.1245721).

[3] = KIF18A microtubule-dependent ATPase activity, biochemical assay

hKIF18A (1-374), sequence (Q8NI77 whole entry, looked up): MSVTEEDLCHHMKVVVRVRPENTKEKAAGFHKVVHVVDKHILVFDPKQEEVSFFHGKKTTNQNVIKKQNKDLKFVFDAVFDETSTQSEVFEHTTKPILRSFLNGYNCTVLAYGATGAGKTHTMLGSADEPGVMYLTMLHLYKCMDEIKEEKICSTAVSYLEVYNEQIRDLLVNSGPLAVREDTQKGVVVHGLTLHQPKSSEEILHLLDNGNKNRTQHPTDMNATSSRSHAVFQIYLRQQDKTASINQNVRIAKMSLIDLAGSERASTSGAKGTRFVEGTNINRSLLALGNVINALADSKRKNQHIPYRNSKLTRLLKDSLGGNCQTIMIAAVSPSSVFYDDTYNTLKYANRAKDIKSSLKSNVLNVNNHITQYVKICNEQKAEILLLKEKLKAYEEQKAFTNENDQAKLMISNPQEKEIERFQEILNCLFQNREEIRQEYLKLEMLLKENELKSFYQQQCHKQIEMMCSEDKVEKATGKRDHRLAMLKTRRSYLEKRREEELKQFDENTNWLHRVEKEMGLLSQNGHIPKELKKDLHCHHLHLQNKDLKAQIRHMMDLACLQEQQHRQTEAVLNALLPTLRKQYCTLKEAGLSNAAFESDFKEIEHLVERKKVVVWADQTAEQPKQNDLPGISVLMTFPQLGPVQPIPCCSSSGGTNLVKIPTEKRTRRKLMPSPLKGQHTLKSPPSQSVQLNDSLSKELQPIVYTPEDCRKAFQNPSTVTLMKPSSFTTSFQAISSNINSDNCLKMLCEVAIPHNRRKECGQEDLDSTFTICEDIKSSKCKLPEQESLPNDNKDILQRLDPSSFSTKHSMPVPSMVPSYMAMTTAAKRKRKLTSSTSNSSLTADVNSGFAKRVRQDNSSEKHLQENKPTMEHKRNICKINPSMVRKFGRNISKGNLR
hKIF18A (1-374), sequence (Q2XVP4 whole entry partner, looked up): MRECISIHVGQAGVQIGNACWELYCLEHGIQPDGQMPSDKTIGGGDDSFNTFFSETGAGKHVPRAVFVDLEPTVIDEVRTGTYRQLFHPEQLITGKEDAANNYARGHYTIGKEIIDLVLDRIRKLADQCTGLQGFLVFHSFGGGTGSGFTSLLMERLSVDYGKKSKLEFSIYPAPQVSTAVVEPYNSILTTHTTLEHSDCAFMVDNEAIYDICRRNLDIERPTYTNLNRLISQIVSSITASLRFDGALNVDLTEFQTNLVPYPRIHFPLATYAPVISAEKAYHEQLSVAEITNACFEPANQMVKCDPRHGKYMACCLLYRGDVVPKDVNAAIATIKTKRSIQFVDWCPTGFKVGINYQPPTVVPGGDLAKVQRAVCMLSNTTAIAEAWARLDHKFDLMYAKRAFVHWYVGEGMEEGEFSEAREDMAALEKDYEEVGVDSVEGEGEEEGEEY
hKIF18A (1-374), sequence (P02554 whole entry partner, looked up): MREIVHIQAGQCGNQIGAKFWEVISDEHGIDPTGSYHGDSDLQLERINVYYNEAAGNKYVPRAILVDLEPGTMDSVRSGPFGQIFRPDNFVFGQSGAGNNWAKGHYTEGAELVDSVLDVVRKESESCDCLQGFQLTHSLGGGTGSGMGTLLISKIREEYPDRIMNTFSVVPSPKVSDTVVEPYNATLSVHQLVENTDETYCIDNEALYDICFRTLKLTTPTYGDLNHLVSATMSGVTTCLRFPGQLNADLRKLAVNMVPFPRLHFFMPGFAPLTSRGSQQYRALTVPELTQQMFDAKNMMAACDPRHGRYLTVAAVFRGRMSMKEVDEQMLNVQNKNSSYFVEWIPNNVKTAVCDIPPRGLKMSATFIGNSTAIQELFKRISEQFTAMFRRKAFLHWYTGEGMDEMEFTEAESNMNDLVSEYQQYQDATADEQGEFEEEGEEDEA
KIF18a-Microtubule Complex, sequence (Q8NI77 whole entry, looked up): as the sequence (Q8NI77 whole entry, looked up) above
KIF18a-Microtubule Complex, sequence (Q2XVP4 whole entry partner, looked up): as the sequence (Q2XVP4 whole entry partner, looked up) above
KIF18a-Microtubule Complex, sequence (P02554 whole entry partner, looked up): as the sequence (P02554 whole entry partner, looked up) above

Row | IC50 [1, 3] | kon (on-rate from binding kinetics assay) [2] | disc. t1/2 (dissociation half-life ln(2)/koff) [2] | Ki [2] | koff [2] | IC50 [1] | SMILES | koff (off-rate from binding kinetics assay) [2]
1 | 11 nM | 0.082 nM⁻¹ h⁻¹ | 19 h | 0.44 nM | 1e-05 s⁻¹ | – | CS(=O)(=O)Nc1ccc2c(c1)C1(CCC3(CC3)CC1)CN2C(=O)c1cccc(S(=O)(=O)N2CC3C(C2)C3(F)F)c1 (stereo not drawn) [Compound 237, N-(1″-(3-((6,6-difluoro-3-azabicyclo[3.1.0]hexan-3-yl)sulfonyl)benzoyl)dispiro[cyclopropane-1,1′-cyclohexane-4′,3″-indolin]-5″- yl)methanesulfonamide] | –
2 | 9.3 nM | 0.060 nM⁻¹ h⁻¹ | 8.1 h | 1.4 nM | 2.39e-05 s⁻¹ | – | CS(=O)(=O)Nc1ccc2c(c1)C1(CCC3(CC3)CC1)CN2C(=O)c1cccc(S(=O)(=O)N2CC[C@@H](F)C2)c1 [(R)-Compound 239, (R)-N-(1″-(3-((3-fluoropyrrolidin-1-yl)sulfonyl)benzoyl)dispiro[cyclopropane-1,1′-cyclohexane-4′,3″-indolin]-5″- yl)methanesulfonamide] | –
3 | 8.4 nM | 0.071 nM⁻¹ h⁻¹ | 26 h | 0.38 nM | 7.5e-06 s⁻¹ | – | CC(C)(C)NS(=O)(=O)c1cc(C(=O)N2CC3(CCC4(CC4)CC3)c3cc(NS(C)(=O)=O)ccc32)ccc1O [Compound 298, N-(tert-butyl)-2-hydroxy-5-(5″-(methylsulfonamido)dispiro[cyclopropane-1,1′-cyclohexane-4′,3″-indoline]-1″-carbonyl)benzenesulfonamide] | –
4 | 51 nM | 0.015 nM⁻¹ h⁻¹ | 5.2 h | 9.3 nM | 3.89e-05 s⁻¹ | – | CC(C)(C)NS(=O)(=O)c1cccc(C(=O)N2CC3(CCC(F)(F)CC3)c3cc(NS(C)(=O)=O)ccc32)c1 [Compound 144, N-(tert-butyl)-3-(4,4-difluoro-5′-(methylsulfonamido)spiro[cyclohexane-1,3′-indoline]-1′-carbonyl)benzenesulfonamide] | –
5 | 5.9 nM | 0.032 nM⁻¹ h⁻¹ | 6.7 h | 0.31 nM | 2.86e-05 s⁻¹ | – | CC(C)(C)NS(=O)(=O)c1cc(C(=O)N2CC3(CCC4(CC4)CC3)c3cc(NS(C)(=O)=O)ccc32)cs1 [Compound 262, N-(tert-butyl)-4-(5″- (methylsulfonamido)dispiro[cyclopropane-1,1′-cyclohexane-4′,3″-indoline]-1″-carbonyl)thiophene-2-sulfonamide] | –
6 | 7.4 nM | 0.11 nM⁻¹ h⁻¹ | 6.5 h | 2 nM | 3.06e-05 s⁻¹ | – | CS(=O)(=O)Nc1ccc2c(c1)C1(CCC3(CC3)CC1)CN2C(=O)c1cccc(S(=O)(=O)C2CCCC2)c1 [Compound 155, N-(1″-(3-(cyclopentylsulfonyl)benzoyl)dispiro [cyclopropane-1,1′-cyclohexane-4′,3″- indolin]-5″-yl)methanesulfonamide] | –
7 | 25 nM | – | – | – | – | – | CC(c1cccc(C(=O)N2CC3(CCC4(CC4)CC3)c3cc(NS(C)(=O)=O)ccc32)c1)N1CCC(F)(F)CC1 (stereo not drawn) [Compound 341, N-(1″-(3-(1-(4,4-difluoropiperidin-1-yl)ethyl)benzoyl)dispiro[cyclopropane-1,1′-cyclohexane-4′,3″-indolin]-5″-yl)methanesulfonamide] | –
8 | 810 nM | – | – | – | – | – | Cc1cc(C(=O)N2CC3(CCC4(CC4)CC3)c3cc(NS(C)(=O)=O)ccc32)nc(CN2CCC(F)(F)CC2)n1 [Compound 343, N-(1″-(2-((4,4-difluoropiperidin-1-yl)methyl)-6-methylpyrimidine-4-carbonyl)dispiro[cyclopropane-1,1′-cyclohexane-4′,3″-indolin]-5″- yl)methanesulfonamide] | –
9 | – | – | – | – | – | 16 nM | C[C@H]1CCN(S(=O)(=O)c2cccc(C(=O)N3CC4(CCC5(CC5)CC4)c4cc(NS(C)(=O)=O)ccc43)c2)C1 [(S)-Compound 249, (S)-N-(1″-(3-((3-methylpyrrolidin-1-yl)sulfonyl)benzoyl)dispiro[cyclopropane-1,1′-cyclohexane-4′,3″-indolin]-5″- yl)methanesulfonamide] | –
10 | 100 nM | – | – | – | – | – | CC(C)NS(=O)(=O)c1cccc(C(=O)N2CC3(CCCCC3)c3cc(NS(C)(=O)=O)ccc32)c1 [Compound 48, N-isopropyl-3-(5′-(methylsulfonamido)spiro[cyclohexane-1,3′-indoline]-1′-carbonyl)benzenesulfonamide] | –
11 | 18 nM | – | – | – | – | – | CS(=O)(=O)Nc1ccc2c(c1)C1(CCC3(CC3)CC1)CN2C(=O)c1ccnc(C(O)C2CCCC2)c1 (stereo not drawn) [Compound 316, N-(1″-(2-(cyclopentyl(hydroxy)methyl)isonicotinoyl)dispiro[cyclopropane-1,1′-cyclohexane-4′,3″-indolin]-5″- yl)methanesulfonamide] | –
12 | 5.2 nM | – | – | – | – | – | COc1ccc(C(=O)N2CC3(CCC4(CC4)CC3)c3cc(NS(C)(=O)=O)ccc32)cc1S(=O)(=O)NC12CC(C1)C2 [Compound 311, N-(bicyclo[1.1.1]pentan-1-yl)-2-methoxy-5-(5″-(methylsulfonamido)dispiro[cyclopropane-1,1′-cyclohexane-4′,3″-indoline]-1″- carbonyl)benzenesulfonamide] | –
13 | 83 nM | – | – | – | – | – | CC(C)(C)NS(=O)(=O)c1cccc(C(=O)N2CC3(CCC4(CC4)CC3)c3cc(C(O)C(F)(F)F)ccc32)c1 (single isomer, unassigned) [Compound 338b] | –
14 | 780 nM | – | – | – | – | 740 nM | CC1CCC2(CC1)CN(C(=O)c1cccc(S(=O)(=O)N3CCC(F)(F)CC3)c1)c1ccc(Br)cc12 (stereo not drawn) [Compound 15, (5′-bromo-4-methylspiro[cyclohexane-1,3′-indolin]-1′-yl)(3-((4,4-difluoropiperidin-1-yl)sulfonyl)phenyl)methanone] | –
15 | 53 nM | – | – | – | – | – | CS(=O)(=O)Nc1ccc2c(c1)C1(CCC3(CC3)CC1)CN2C(=O)c1cccc(S(=O)(=O)NC2(CO)CC2)c1 [Compound 202, N-(1-(hydroxymethyl)cyclopropyl)-3-(5″- (methylsulfonamido)dispiro[cyclopropane-1,1′-cyclohexane-4′,3″-indoline]-1″-carbonyl)benzenesulfonamide] | –
16 | 23 nM | – | – | – | – | – | CC1CCC2(C1)CN(C(=O)c1cccc(S(=O)(=O)N3CCC(F)(F)CC3)c1)c1ccc(NS(C)(=O)=O)cc12 (stereo not drawn) [Compound 23, N-(1′-(3-((4,4-difluoropiperidin-1-yl)sulfonyl)benzoyl)-3-methylspiro[cyclopentane-1,3′-indolin]-5′-yl)methanesulfonamide] | –
17 | 24 nM | – | – | – | – | – | CS(=O)(=O)Nc1ccc2c(c1)C1(CCC3(CC3)CC1)CN2C(=O)c1cccc(C(C#N)C2CCCC2)c1 (stereo not drawn) [Compound 339, N-(1″-(3-(cyano(cyclopentyl)methyl)benzoyl)dispiro[cyclopropane-1,1′-cyclohexane-4′,3″-indolin]-5″- yl)methanesulfonamide] | –
18 | 170 nM | – | – | – | – | – | CC(C)(C)[C@H](O)c1ccc(C(=O)N2CC3(CCC4(CC4)CC3)c3cc(NS(C)(=O)=O)ccc32)o1 (single isomer, unassigned) [Compound 373b] | –
19 | 17 nM | – | – | – | – | – | CC1(NS(=O)(=O)c2cccc(C(=O)N3CC4(CCC5(CC5)CC4)c4cc(NS(C)(=O)=O)ccc43)c2)CCOC1 (stereo not drawn) [Compound 178, 3-(5″- (methylsulfonamido)dispiro[cyclopropane-1,1′-cyclohexane-4′,3″-indoline]-1″-carbonyl)-N-(3-methyltetrahydrofuran-3-yl)benzenesulfonamide] | –
20 | 130 nM | – | – | – | – | – | CS(=O)(=O)Nc1ccc2c(c1)C1(CCCCC1)CN2C(=O)c1cccc(S(=O)(=O)N2CCC(F)C2)c1 (stereo not drawn) [Compound 83, N-(1′-(3-((3-fluoropyrrolidin-1-yl)sulfonyl)benzoyl)spiro[cyclohexane-1,3′-indoline]-5′-yl)methanesulfonamide] | –
21 | 4.8 nM | – | – | – | – | – | C=C1CC(NS(=O)(=O)c2cccc(C(=O)N3CC4(CCC5(CC5)CC4)c4cc(NS(C)(=O)=O)ccc43)c2)C1 [Compound 190, N-(3-methylenecyclobutyl)-3-(5″- (methylsulfonamido)dispiro[cyclopropane-1,1′-cyclohexane-4′,3″-indoline]-1″-carbonyl)benzenesulfonamide] | –

Row | SMILES | IC50 [1, 3] | kon (on-rate from binding kinetics assay) [2] | disc. t1/2 (dissociation half-life ln(2)/koff) [2] | Ki [2] | koff [2] | IC50 [1] | koff (off-rate from binding kinetics assay) [2]
22 | CS(=O)(=O)Nc1ccc2c(c1)C1(CCC3(CC3)CC1)CN2C(=O)c1cccc([C@H](O)C2CC(F)(F)C2)c1 (single isomer, unassigned) [Compound 351a] | 8.7 nM | 0.070 nM⁻¹ h⁻¹ | 1.7 h | 5.8 nM | – | – | 0.41 h⁻¹
23 | CCS(=O)(=O)Nc1ccc2c(c1)[C@]1(CC[C@H](C(F)F)CC1)CN2C(=O)c1cccc(S(=O)(=O)NC(C)(C)C)c1 [Compound 333b] | 33 nM | 0.014 nM⁻¹ h⁻¹ | 63 h | 0.77 nM | – | – | 0.011 h⁻¹
24 | CS(=O)(=O)Nc1ccc2c(c1)C1(CCC3(CC3)CC1)CN2C(=O)c1cccc([C@@H](O)C2CCCC2)n1 (single isomer, unassigned) [Compound 317a] | 11 nM | 0.033 nM⁻¹ h⁻¹ | 2.1 h | 10 nM | – | – | 0.33 h⁻¹
25 | CC(C)(C)NS(=O)(=O)c1cccc(C(=O)N2C[C@]3(CC[C@H](C(F)F)CC3)c3cc(NS(C)(=O)=O)ccc32)c1 [Compound 162a] | 15 nM | 0.029 nM⁻¹ h⁻¹ | 13 h | 1.9 nM | – | – | 0.055 h⁻¹
